Results from ChEMBL document CHEMBL1201862, “PubChem BioAssay data set” (2004).
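Interpolation was linear, between the two tested concentrations surrounding the appropriate level; five concentrations were tested over 48 hours in 96-well plates. GI50: concentration for 50% inhibition of growth.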 The source made the active and inactive calls. Cut-off read from the data, not from the text of the source: active = GI50 up to about 1.1 µM and inactive = higher.

Key:
Test in all cases: growth of human tumour cells (NCI), 48 h
[1] = system: TK-10
[2] = system: OVCAR-5
[3] = system: NCI-H460
[4] = system: LOX IMVI
[5] = system: HCC 2998
[6] = system: HCT-15
[7] = system: PC-3
[8] = system: SN12C
[9] = system: U-251
[10] = system: SK-MEL-28
[11] = system: NCI-H23
[12] = system: MDA-N
[13] = system: OVCAR-4
[14] = system: EKVX
[15] = system: RXF 393
[16] = system: HOP-92
[17] = system: SF-295
[18] = system: Malme-3M
[19] = system: ACHN
[20] = system: SR
[21] = system: HL-60
[22] = system: SF-268
[23] = system: Hs-578T
[24] = system: HCT-116
[25] = system: UO-31
[26] = system: CAKI-1
[27] = system: MDA-MB-231
[28] = system: HT-29
[29] = system: SNB-75
[30] = system: OVCAR-3
[31] = system: SW-620
[32] = system: A549
[33] = system: SNB-19
[34] = system: KM12
[35] = system: UACC-257
[36] = system: MDA-MB-435
[37] = system: SF-539
[38] = system: DU-145
[39] = system: NCI/ADR-RES
[40] = system: K562
[41] = system: A498
[42] = system: RPMI-8226
[43] = system: IGROV-1
[44] = system: HOP-62
[45] = system: MCF7
[46] = system: BT-549
[47] = system: NCI-H522
[48] = system: MOLT-4
[49] = system: SK-MEL-5
[50] = system: 786-0
[51] = system: NCI-H226
[52] = system: CCRF-CEM
[53] = system: COLO 205
[54] = system: OVCAR-8
[55] = system: UACC-62
[56] = system: SK-MEL-2
[57] = system: M14
[58] = system: SK-OV-3

Measured: GI50

CN(C)c1ccc(C2=C([O-])c3cc(-[n+]4ccccc4)ccc3C2=O)cc1
inactive: [1] > 100 µM | [2] > 100 µM | [3] > 100 µM | [4] > 100 µM | [5] > 100 µM | [7] > 100 µM | [8] > 100 µM | [9] > 100 µM | [10] > 100 µM | [11] > 100 µM | [12] > 100 µM | [13] > 100 µM | [14] > 100 µM | [15] > 100 µM | [16] > 100 µM | [17] > 100 µM | [18] > 100 µM | [19] > 100 µM | [20] > 100 µM | [21] > 100 µM | [22] > 100 µM | [23] > 100 µM | [24] > 100 µM | [25] > 100 µM | [26] > 100 µM | [27] > 100 µM | [28] > 100 µM | [29] > 100 µM | [30] > 100 µM | [31] > 100 µM | [32] > 100 µM | [33] > 100 µM | [34] > 100 µM | [35] > 100 µM | [36] > 100 µM | [37] > 100 µM | [38] > 100 µM | [39] > 100 µM | [40] > 100 µM | [41] > 100 µM | [42] > 100 µM | [43] > 100 µM | [44] > 100 µM | [45] > 100 µM | [46] > 100 µM | [47] > 100 µM | [48] > 100 µM | [49] > 100 µM | [50] > 100 µM | [51] > 100 µM | [52] > 100 µM | [53] > 100 µM | [54] > 100 µM
> 100 µM: [6]

CC[C@H](O)[C@H](C)C=C1SCCCS1
inactive: [1] > 100 µM | [2] > 100 µM | [4] > 100 µM | [5] > 100 µM | [7] > 100 µM | [8] > 100 µM | [9] > 100 µM | [10] > 100 µM | [55] > 100 µM | [11] > 100 µM | [12] > 100 µM | [13] > 100 µM | [14] > 100 µM | [15] > 100 µM | [16] > 100 µM | [17] > 100 µM | [18] > 100 µM | [19] > 100 µM | [20] > 100 µM | [21] 34.8 µM | [22] > 100 µM | [23] > 100 µM | [24] > 100 µM | [25] 61.8 µM | [26] > 100 µM | [27] > 100 µM | [56] > 100 µM | [57] > 100 µM | [28] > 100 µM | [29] > 100 µM | [30] > 100 µM | [31] > 100 µM | [32] > 100 µM | [34] > 100 µM | [35] > 100 µM | [36] > 100 µM | [38] > 100 µM | [39] > 100 µM | [40] > 100 µM | [41] > 100 µM | [42] > 100 µM | [43] > 100 µM | [44] > 100 µM | [45] > 100 µM | [46] > 100 µM | [47] > 100 µM | [48] > 100 µM | [49] > 100 µM | [50] > 100 µM | [51] > 100 µM | [52] > 100 µM | [58] > 100 µM | [53] > 100 µM | [54] > 100 µM
> 100 µM: [6]
